Source: patent publication US20240366612A1, “COMPOUNDS AND METHODS FOR MODULATING NUCLEIC ACID SPLICING” (REMIX THERAPEUTICS INC., priority 2021, published 2024)

Legend:
SMN2 CJ mRNA = assay: Gene panel canonical junction qPCR assay, SMN2; assay type: cell-based; conditions: Homo sapiens, larger gene panel, read-out: SMN2 IC50 (decrease in CJ mRNA levels)
Method in brief: (§1)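 A673 or K562 cells treated 24 h with 11-point 3-fold dilutions (top 10 µM, ≤0.25% DMSO) at 37 °C. Canonical exon-junction mRNA measured by probe-based RT-qPCR, normalized to GAPDH, GUSB or PPIA and DMSO (2^−ΔΔCt), converted to percent response over a fixed ΔCt window; IC50 from 4-parameter fit.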

MYB mRNA = assay: Splicing RT-qPCR assay, MYB canonical (CJ) and alternative (AJ) junction mRNA; assay type: cell-based; conditions: Homo sapiens, A673 or K562 cells, 24 hours treatment; for IC50: decrease in CJ mRNA; for AC50: increase in AJ mRNA
Method in brief: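 Compound-treated A673 or K562 cells (11-point 3-fold dilution, top dose 10 uM final, DMSO ≤0.25%) were incubated for 24 h at 37° C. Lysates underwent one-step RT-qPCR for canonical and alternative-exon junction isoforms. Normalization used PPIA for A673 and GAPDH or GUSB for K562.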

MYB CJ mRNA = assay: Gene panel canonical junction qPCR assay, MYB; assay type: cell-based; conditions: Homo sapiens, larger gene panel, read-out: MYB IC50 (decrease in CJ mRNA levels)
Method in brief: as §1

[1] = Cell Titer Glo 2.0 cell viability assay; conditions: human, K562 cells

SMILES	IC50 (SMN2 CJ mRNA) [µM]	IC50 (MYB mRNA) [µM]	AC50 (MYB mRNA) [µM]	IC50 (MYB CJ mRNA) [µM]	GI50 at 72 h [1] [µM]
Cc1cn2cc(-n3cnc4nc(N5CCN(C)CC5)sc4c3=O)cc(F)c2n1 [Compound 228, 6-(8-fluoro-2-methylimidazo[1,2-a]pyridin-6-yl)-2-(4-methylpiperazin-1-yl)thiazolo[4,5-d]pyrimidin-7(6H)-one]	1 to 10	1 to 10	1 to 10	1 to 10	1 to 10
Cc1cn2cc(-n3cnc4nc(N5CCNCC5)sc4c3=O)cc(C(F)(F)F)c2n1 [Compound 229, 6-(2-methyl-8-(trifluoromethyl)imidazo[1,2-a]pyridin-6-yl)-2-(piperazin-1-yl)thiazolo[4,5-d]pyrimidin-7(6H)-one]	> 10	> 10	> 10	> 10	> 10
Cc1cn2cc(-n3cnc4nc(N5CCN(C)CC5)sc4c3=O)cc(C(F)(F)F)c2n1 [Compound 230, 6-(2-methyl-8-(trifluoromethyl)imidazo[1,2-a]pyridin-6-yl)-2-(4-methylpiperazin-1-yl)thiazolo[4,5-d]pyrimidin-7(6H)-one]	> 10	0.1 to 1	0.1 to 1	> 10	> 10
Cc1cn2nc(-c3nc4ncn(C5CCNCC5)c(=O)c4s3)cc(C)c2n1 [Compound 231, 2-(2,8-dimethylimidazo[1,2-b]pyridazin-6-yl)-6-(piperidin-4-yl)thiazolo[4,5-d]pyrimidin-7(6H)-one]	1 to 10	0.1 to 1	0.1 to 1	0.1 to 1	1 to 10
Cc1cn2cc(-c3nc4ncn(C5CCNCC5)c(=O)c4s3)cc(F)c2n1 [Compound 232, 2-(8-fluoro-2-methylimidazo[1,2-a]pyridin-6-yl)-6-(piperidin-4-yl)thiazolo[4,5-d]pyrimidin-7(6H)-one]	< 0.1	0.1 to 1	0.1 to 1	0.1 to 1	0.1 to 1
Cc1cc(-c2nc3ncn(C4CCNCC4)c(=O)c3s2)cc2cn(C)nc12 [Compound 233, 2-(2,7-dimethyl-2H-indazol-5-yl)-6-(piperidin-4-yl)thiazolo[4,5-d]pyrimidin-7(6H)-one]	< 0.1	0.1 to 1	< 0.1	0.1 to 1	0.1 to 1
Cc1cc(-c2nc3ncn(C4CCN(C)CC4)c(=O)c3s2)cc2cn(C)nc12 [Compound 234, 2-(2,7-dimethyl-2H-indazol-5-yl)-6-(1-methylpiperidin-4-yl)thiazolo[4,5-d]pyrimidin-7(6H)-one]	< 0.1	0.1 to 1	< 0.1	0.1 to 1	0.1 to 1
Cc1cn2cc(-c3cc4ncn(C5CCNCC5)c(=O)c4s3)cc(F)c2n1 [Compound 235, 6-(8-fluoro-2-methylimidazo[1,2-a]pyridin-6-yl)-3-(piperidin-4-yl)thieno[3,2-d]pyrimidin-4(3H)-one]	< 0.1	0.1 to 1	0.1 to 1	0.1 to 1	0.1 to 1
Cc1cc(-c2cc3ncn(C4CCNCC4)c(=O)c3s2)cc2cn(C)nc12 [Compound 236, 6-(2,7-dimethyl-2H-indazol-5-yl)-3-(piperidin-4-yl)thieno[3,2-d]pyrimidin-4(3H)-one]	< 0.1	0.1 to 1	0.1 to 1	0.1 to 1	0.1 to 1
Cc1cc(-c2cc3ncn(C4CCN(C)CC4)c(=O)c3s2)cc2cn(C)nc12 [Compound 237, 6-(2,7-dimethyl-2H-indazol-5-yl)-3-(1-methylpiperidin-4-yl)thieno[3,2-d]pyrimidin-4(3H)-one]	< 0.1	0.1 to 1	< 0.1	0.1 to 1	0.1 to 1
Cc1cn2nc(-c3cc4ncn(C5CCNCC5)c(=O)c4s3)cc(C)c2n1 [Compound 238, 6-(2,8-dimethylimidazo[1,2-b]pyridazin-6-yl)-3-(piperidin-4-yl)thieno[3,2-d]pyrimidin-4(3H)-one]	< 0.1	0.1 to 1	0.1 to 1	0.1 to 1	1 to 10
Cc1cn2nc(-c3cc4ncn(C5CCN(C)CC5)c(=O)c4s3)cc(C)c2n1 [Compound 239, 6-(2,8-dimethylimidazo[1,2-b]pyridazin-6-yl)-3-(1-methylpiperidin-4-yl)thieno[3,2-d]pyrimidin-4(3H)-one]	< 0.1	1 to 10	0.1 to 1	1 to 10	1 to 10
Cc1cn2cc(-c3nc4sc(C5CCNCC5)cc4c(=O)[nH]3)cc(F)c2n1 [Compound 250, 2-(8-fluoro-2-methylimidazo[1,2-a]pyridin-6-yl)-6-(piperidin-4-yl)thieno[2,3-d]pyrimidin-4(3H)-one]	0.1 to 1	0.1 to 1	0.1 to 1	0.1 to 1	0.1 to 1
Cc1nc(-c2nc3ncn(C4CCNCC4)c(=O)c3s2)cc2cn(C)nc12 [Compound 251, 2-(2,7-dimethyl-2H-pyrazolo[3,4-c]pyridin-5-yl)-6-(piperidin-4-yl)thiazolo[4,5-d]pyrimidin-7(6H)-one]	0.1 to 1	1 to 10	> 10	1 to 10	1 to 10
